From ChEMBL document CHEMBL2150993, “Substituted thiazoles VII. Synthesis and antitumor activity of certain 2-(substituted amino)-4-phenyl-1,3-thiazole analogs” (2012)

Tests used:
Format in all cases: functional
[1] = test system: CCRF-CEM; assay: Growth inhibition of human CCRF-CEM cells after 48 hrs by cell counting analysis; conditions: at 10 µM
[2] = test system: HL-60; assay: Growth inhibition of human HL60 cells after 48 hrs by cell counting analysis; conditions: at 10 µM
[3] = test system: K562; assay: Growth inhibition of human K562 cells after 48 hrs by cell counting analysis; conditions: at 10 µM
[4] = test system: RPMI-8226; assay: Growth inhibition of human RPMI8226 cells after 48 hrs by cell counting analysis; conditions: at 10 µM
[5] = test system: SR; assay: Growth inhibition of human SR cells after 48 hrs by cell counting analysis; conditions: at 10 µM
[6] = test system: A549; assay: Growth inhibition of human A549 cells after 48 hrs by cell counting analysis; conditions: at 10 µM
[7] = test system: EKVX; assay: Growth inhibition of human EKVX cells after 48 hrs by cell counting analysis; conditions: at 10 µM
[8] = test system: HOP-62; assay: Growth inhibition of human HOP62 cells after 48 hrs by cell counting analysis; conditions: at 10 µM
[9] = test system: HOP-92; assay: Growth inhibition of human HOP92 cells after 48 hrs by cell counting analysis; conditions: at 10 µM
[10] = test system: NCI-H226; assay: Growth inhibition of human NCI-H226 cells after 48 hrs by cell counting analysis; conditions: at 10 µM
[11] = test system: NCI-H23; assay: Growth inhibition of human NCI-H23 cells after 48 hrs by cell counting analysis; conditions: at 10 µM
[12] = Growth inhibition of human NCI-322M cells after 48 hrs by cell counting analysis; conditions: at 10 µM
[13] = test system: NCI-H522; assay: Growth inhibition of human NCI-H522 cells after 48 hrs by cell counting analysis; conditions: at 10 µM
[14] = test system: HCC 2998; assay: Growth inhibition of human HCC2998 cells after 48 hrs by cell counting analysis; conditions: at 10 µM
[15] = test system: HCT-15; assay: Growth inhibition of human HCT15 cells after 48 hrs by cell counting analysis; conditions: at 10 µM
[16] = test system: HT-29; assay: Growth inhibition of human HT-29 cells after 48 hrs by cell counting analysis; conditions: at 10 µM
[17] = test system: KM12; assay: Growth inhibition of human KM12 cells after 48 hrs by cell counting analysis; conditions: at 10 µM
[18] = test system: SW-620; assay: Growth inhibition of human SW620 cells after 48 hrs by cell counting analysis; conditions: at 10 µM
[19] = test system: SF-268; assay: Growth inhibition of human SF268 cells after 48 hrs by cell counting analysis; conditions: at 10 µM
[20] = test system: SF-295; assay: Growth inhibition of human SF295 cells after 48 hrs by cell counting analysis; conditions: at 10 µM
[21] = test system: SF-539; assay: Growth inhibition of human SF539 cells after 48 hrs by cell counting analysis; conditions: at 10 µM
[22] = test system: SNB-19; assay: Growth inhibition of human SNB19 cells after 48 hrs by cell counting analysis; conditions: at 10 µM
[23] = test system: SNB-75; assay: Growth inhibition of human SNB75 cells after 48 hrs by cell counting analysis; conditions: at 10 µM
[24] = test system: U-251; assay: Growth inhibition of human U251 cells after 48 hrs by cell counting analysis; conditions: at 10 µM
[25] = test system: LOX IMVI; assay: Growth inhibition of human LOXIMVI cells after 48 hrs by cell counting analysis; conditions: at 10 µM
[26] = test system: Malme-3M; assay: Growth inhibition of human MALME-3M cells after 48 hrs by cell counting analysis; conditions: at 10 µM
[27] = test system: M14; assay: Growth inhibition of human M14 cells after 48 hrs by cell counting analysis; conditions: at 10 µM
[28] = test system: MDA-MB-435; assay: Growth inhibition of human MDA-MB-435 cells after 48 hrs by cell counting analysis; conditions: at 10 µM
[29] = test system: SK-MEL-2; assay: Growth inhibition of human SK-MEL-2 cells after 48 hrs by cell counting analysis; conditions: at 10 µM
[30] = test system: SK-MEL-28; assay: Growth inhibition of human SK-MEL-28 cells after 48 hrs by cell counting analysis; conditions: at 10 µM
[31] = test system: SK-MEL-5; assay: Growth inhibition of human SK-MEL-5 cells after 48 hrs by cell counting analysis; conditions: at 10 µM
[32] = test system: UACC-257; assay: Growth inhibition of human UACC257 cells after 48 hrs by cell counting analysis; conditions: at 10 µM
[33] = test system: UACC-62; assay: Growth inhibition of human UACC62 cells after 48 hrs by cell counting analysis; conditions: at 10 µM
[34] = test system: IGROV-1; assay: Growth inhibition of human IGROV1 cells after 48 hrs by cell counting analysis; conditions: at 10 µM
[35] = test system: OVCAR-3; assay: Growth inhibition of human OVCAR3 cells after 48 hrs by cell counting analysis; conditions: at 10 µM
[36] = test system: OVCAR-4; assay: Growth inhibition of human OVCAR4 cells after 48 hrs by cell counting analysis; conditions: at 10 µM
[37] = test system: OVCAR-5; assay: Growth inhibition of human OVCAR5 cells after 48 hrs by cell counting analysis; conditions: at 10 µM
[38] = test system: OVCAR-8; assay: Growth inhibition of human OVCAR8 cells after 48 hrs by cell counting analysis; conditions: at 10 µM
[39] = Growth inhibition of human NCI-ADR-RES cells after 48 hrs by cell counting analysis; conditions: at 10 µM
[40] = test system: SK-OV-3; assay: Growth inhibition of human SKOV3 cells after 48 hrs by cell counting analysis; conditions: at 10 µM
[41] = test system: ACHN; assay: Growth inhibition of human ACHN cells after 48 hrs by cell counting analysis; conditions: at 10 µM
[42] = test system: CAKI-1; assay: Growth inhibition of human Caki1 cells after 48 hrs by cell counting analysis; conditions: at 10 µM
[43] = test system: RXF 393; assay: Growth inhibition of human RXF393 cells after 48 hrs by cell counting analysis; conditions: at 10 µM
[44] = test system: SN12C; assay: Growth inhibition of human SN12C cells after 48 hrs by cell counting analysis; conditions: at 10 µM
[45] = test system: TK-10; assay: Growth inhibition of human TK10 cells after 48 hrs by cell counting analysis; conditions: at 10 µM
[46] = test system: UO-31; assay: Growth inhibition of human UO31 cells after 48 hrs by cell counting analysis; conditions: at 10 µM
[47] = test system: PC-3; assay: Growth inhibition of human PC3 cells after 48 hrs by cell counting analysis; conditions: at 10 µM
[48] = test system: MCF7; assay: Growth inhibition of human MCF7 cells after 48 hrs by cell counting analysis; conditions: at 10 µM
[49] = test system: MDA-MB-231; assay: Growth inhibition of human MDA-MB-231 cells after 48 hrs by cell counting analysis; conditions: at 10 µM
[50] = test system: BT-549; assay: Growth inhibition of human BT549 cells after 48 hrs by cell counting analysis; conditions: at 10 µM
[51] = test system: T47D; assay: Growth inhibition of human T47D cells after 48 hrs by cell counting analysis; conditions: at 10 µM
[52] = test system: MDA-MB-468; assay: Growth inhibition of human MDA-MB-468 cells after 48 hrs by cell counting analysis; conditions: at 10 µM
[53] = test system: MOLT-4; assay: Growth inhibition of human MOLT4 cells after 48 hrs by cell counting analysis; conditions: at 10 µM
[54] = test system: HCT-116; assay: Growth inhibition of human HCT116 cells after 48 hrs by cell counting analysis; conditions: at 10 µM
[55] = Antiproliferative activity against human leukemia cells after 48 hrs by cell counting analysis
[56] = Antiproliferative activity against human non-small cell lung cancer cells after 48 hrs by cell counting analysis; conditions: Cancer cell lines
[57] = Antiproliferative activity against human colon cancer cells after 48 hrs by cell counting analysis; conditions: Cancer cell lines
[58] = Antiproliferative activity against human CNS cancer cells after 48 hrs by cell counting analysis; conditions: Cancer cell lines
[59] = Antiproliferative activity against human melanoma cells after 48 hrs by cell counting analysis
[60] = Antiproliferative activity against human ovarian cancer cells after 48 hrs by cell counting analysis; conditions: Cancer cell lines
[61] = Antiproliferative activity against human renal cancer cells after 48 hrs by cell counting analysis; conditions: Cancer cell lines
[62] = Antiproliferative activity against human prostate cancer cells after 48 hrs by cell counting analysis; conditions: Cancer cell lines
[63] = Antiproliferative activity against human breast cancer cells after 48 hrs by cell counting analysis; conditions: Cancer cell lines
[64] = read-out: LC50 (the source's name)

CN1CCN(CCC(=O)Nc2nc(-c3ccc(Cl)cc3)cs2)CC1
growth inhibition (GI) [1]: 18.3%
growth inhibition (GI) [2]: 20.6%
growth inhibition (GI) [3]: 22.4%
growth inhibition (GI) [4]: 17.6%
growth inhibition (GI) [5]: <10%
growth inhibition (GI) [6]: <10%
growth inhibition (GI) [7]: 11.9%
growth inhibition (GI) [8]: 19.7%
growth inhibition (GI) [9]: 42.2%
growth inhibition (GI) [10]: 28%
growth inhibition (GI) [11]: 11.2%
growth inhibition (GI) [12]: <10%
growth inhibition (GI) [13]: 31.1%
growth inhibition (GI) [14]: 13.3%
growth inhibition (GI) [15]: 18.1%
growth inhibition (GI) [16]: 23.8%
growth inhibition (GI) [17]: <10%
growth inhibition (GI) [18]: <10%
growth inhibition (GI) [19]: 14.2%
growth inhibition (GI) [20]: <10%
growth inhibition (GI) [21]: 14.8%
growth inhibition (GI) [22]: 19.7%
growth inhibition (GI) [23]: 26.8%
growth inhibition (GI) [24]: 16.5%
growth inhibition (GI) [25]: 12.8%
growth inhibition (GI) [26]: 15.4%
growth inhibition (GI) [27]: 15.2%
growth inhibition (GI) [28]: 15.4%
growth inhibition (GI) [29]: <10%
growth inhibition (GI) [30]: <10%
growth inhibition (GI) [31]: 46.1%
growth inhibition (GI) [32]: <10%
growth inhibition (GI) [33]: 15%
growth inhibition (GI) [34]: 18.4%
growth inhibition (GI) [35]: <10%
growth inhibition (GI) [36]: <10%
growth inhibition (GI) [37]: <10%
growth inhibition (GI) [38]: 15.6%
growth inhibition (GI) [39]: 21.9%
growth inhibition (GI) [40]: <10%
growth inhibition (GI) [41]: <10%
growth inhibition (GI) [42]: 24.2%
growth inhibition (GI) [43]: 47.4%
growth inhibition (GI) [44]: 32.9%
growth inhibition (GI) [45]: 20.2%
growth inhibition (GI) [46]: 48.6%
growth inhibition (GI) [47]: 15.3%
growth inhibition (GI) [48]: 28%
growth inhibition (GI) [49]: 25.6%
growth inhibition (GI) [50]: 29.1%
growth inhibition (GI) [51]: 28.8%
growth inhibition (GI) [52]: 62.8%
growth inhibition (GI) [53]: 51.8%
growth inhibition (GI) [54]: 13.3%

O=c1[nH]cc(F)c(=O)[nH]1 [FLUOROURACIL]
TGI [55]: > 100 µM
CC50 [55, 64]: > 100 µM
GI50 [56]: > 100 µM
TGI [56]: > 100 µM
CC50 [56, 64]: > 100 µM
GI50 [57]: 8.4 µM
TGI [57]: > 100 µM
CC50 [57, 64]: > 100 µM
TGI [58]: > 100 µM
CC50 [58, 64]: > 100 µM
GI50 [59]: 70.6 µM
TGI [59]: > 100 µM
CC50 [59, 64]: > 100 µM
GI50 [60]: 61.4 µM
TGI [60]: > 100 µM
CC50 [60, 64]: > 100 µM
GI50 [61]: 45.6 µM
TGI [61]: > 100 µM
CC50 [61, 64]: > 100 µM
GI50 [62]: 22.7 µM
TGI [62]: > 100 µM
CC50 [62, 64]: > 100 µM
GI50 [63]: 76.4 µM
TGI [63]: > 100 µM
CC50 [63, 64]: > 100 µM
